For test [1], the system named is LC3B-II. The experiment in a line: Western blotting of LC3B-II (autophagy) in MCF-7 cells. The following applies: MCF-7, 15 hrs; M4N 80 μM. Type of test: cell-based, human. The procedure: The sample volumes were adjusted by the total protein amount. Protein assay was performed by Bio-Rad Protein Assay (Bio-Rad Laboratories, Inc. Hercules, Calif.). The samples were resolved by the standard SDS-polyacrylamide gel electrophoresis and transferred to nitrocellulose membrane (Amersham Biosciences, Bjorkgatan, Sweden). The membranes were blocked with skim milk, and incubated with primary antibodies at 4° C. overnight and then with secondary antibody conjugated with horse radish peroxidase at room temperature for 2 hrs. The signals were detected by western blot chemiluminescence reagent plus (New England Nuclear Life Science Products, Boston, Mass.). The effect of […] on autophagy was examined using the western blotting for LC3B-II in the presence of Baflomycin A1 in MCF-7 and HepG2 cells (FIG. 4D).
In general terms: A western blot detects proteins with antibodies after separation by electrophoresis.

For test [2], the system named is LC3B-II. Briefly: Western blotting of LC3B-I&II (autophagy) in LNCaP cells. The class given is cell-based, human. The following applies: 18 hrs, in the presence of Baflomycin A1 (100 nM), M4N 80 μM. The procedure:
The sample volumes were adjusted by the total protein amount. Protein assay was performed by Bio-Rad Protein Assay (Bio-Rad Laboratories, Inc. Hercules, Calif.). The samples were resolved by the standard SDS-polyacrylamide gel electrophoresis and transferred to nitrocellulose membrane (Amersham Biosciences, Bjorkgatan, Sweden). The membranes were blocked with skim milk, and incubated with primary antibodies at 4° C. overnight and then with secondary antibody conjugated with horse radish peroxidase at room temperature for 2 hrs. The signals were detected by western blot chemiluminescence reagent plus (New England Nuclear Life Science Products, Boston, Mass.).

A further test concerns Beclin-1. The experiment in a line: Western blotting of Beclin-1 in LNCaP cells. Type of test: cell-based, human. The following applies: normoxic or hypoxic, 6 or 18 hr, M4N 80 μM. The procedure:
The sample volumes were adjusted by the total protein amount. Protein assay was performed by Bio-Rad Protein Assay (Bio-Rad Laboratories, Inc. Hercules, Calif.). The samples were resolved by the standard SDS-polyacrylamide gel electrophoresis and transferred to nitrocellulose membrane (Amersham Biosciences, Bjorkgatan, Sweden). The membranes were blocked with skim milk, and incubated with primary antibodies at 4° C. overnight and then with secondary antibody conjugated with horse radish peroxidase at room temperature for 2 hrs. The signals were detected by western blot chemiluminescence reagent plus (New England Nuclear Life Science Products, Boston, Mass.). BNIP3 is a member of Bcl-2 family proteins which sends pro-apoptotic signal to mitochondria and induces mitochondrial membrane potential depolarization. […] This implies that BNIP3 is involved in autophagy as well as cell death. […] Since BNIP3 is known to be activated more under hypoxic conditions (24), BNIP3 expression was examined in both normoxic and hypoxic conditions (FIGS. 3A&B). […] Previously it was shown that BNIP3 expression is augmented by hypoxia through both […] (HIF)1α-dependent and nondependent pathways (24).

Another test relates to LNCaP tumors. Briefly: Nude mice orthotopically implanted with LNCaP tumors: life-span and lung metastasis. Type of test: in vivo, nude (nu/nu) mice. The following applies: LNCaP tumor-bearing nude mice; lung sections, hematoxylin and eosin.
For the next test, the system named is HIF1α. The experiment in a line: Western blotting of HIF1α in LNCaP cells under hypoxia. The class given is cell-based, human. The following applies: M4N 80 μM. An excerpt: LNCaP human prostate cancer, DU145 human prostate cancer, PC3 human prostate cancer, MCF-7 human breast cancer, MDA-MB-231 human breast cancer, MDA-MB-468 human breast cancer, HT29 human colon cancer, K562 human myelogenous leukaemia, HepG2 human hepatoma, Hep3B human hepatoma, and LN229 human glioblastoma cancer cell lines were purchased from American Type Culture Collection (Manassas, Va.). OC24 human ascites ovarian cancer cell line was a generous gift from Dr. XXX (Johns Hopkins University, MD). LNCaP cell line was cultured in RPMI1640 medium supplemented with glucose (14 mM), pyruvate (1 mM), and fetal bovine serum (FBS) (10%). DU145 cell line was cultured in MEM supplemented with non-essential amino acids, glucose (21 mM), pyruvate (1 mM), and FBS (10%). PC3 cell line was cultured in F-12K medium supplemented with FBS (10%). MCF-7 cell line was cultured in DMEM supplemented with FBS (10%). OC24 cell line was cultured in RPMI1640 medium supplemented with FBS (10%) as suspension culture. MDA-MB-231 and 468 cell lines were cultured in Leibovitz's L15 medium supplemented with FBS (10%) under air. HT29 cell line was cultured in DMEM supplemented with glucose (25 mM) and FBS (10%). K562 cell line was cultured in RPMI1640 supplemented with FBS (10%). […] The signals were detected by western blot chemiluminescence reagent plus (New England Nuclear Life Science Products, Boston, Mass.). […]

Experimental for LNCaP tumors: T-cell deficient male nude mice (nu/nu) were obtained from Charles River Laboratories (Wilmington, Mass.). […] For drug combinations (M4N/etoposide, M4N/rapamycin, and M4N/UCN-01), etoposide, rapamycin, or UCN-01 powder was further added to M4N in CPE 25/30 to make a final concentration of M4N (10 mg/ml) respectively with etoposide (4 mg/ml), rapamycin (3.75 mg/ml), or UCN-01 (884 g/ml) in CPE 25/30 formulation. These drugs were intravenously injected into the tail vein of mice at the daily dose of 0.1 ml per mouse. Therefore dosages of each injection were 1 mg/shot (for M4N), 0.4 mg/shot (for etoposide), 0.375 mg/shot (for rapamycin), and 88.4 μg/shot (for UCN-01). The drug injections were performed once every day; beginning at day 3 until day 31 after tumor inoculation for the combination treatment with either etoposide or rapamycin and until day 25 after tumor inoculation for the combination treatment with UCN-01. After this the drugs were injected once a week for etoposide/rapamycin combination treatment and once every three days until day 35 for UCN-01 combination treatment.
LNCaP cells growing subconfluently were collected into the tissue culture medium without fetal bovine serum and antibiotics. The cell concentration was adjusted by the same medium. […]

As to `COc1ccc(C[C@@H](C)[C@@H](C)Cc2ccc(OC)c(OC)c2)cc1OC` [M4N, Tetra-O-methyl nordihyroguaiaretic acid], the “autophagy (LC3B-II in the presence of Baflomycin A1)” value in the test on LC3B-II [1] is listed as “blocks autophagy”. In addition, in the test with LC3B-II [2], the “net LC3B-II formation (net autophagic activity)” value was “almost totally suppressed”. For the same molecule, the Beclin-1 expression result with Beclin-1 is listed as “not affected”. In addition, the “mice with obvious lung metastasis (histology)” value in the test with LNCaP tumors is on record as 2 out of 4. The values for the HIF1α expression entry in the test on HIF1α (6 hr exposure to hypoxia) and in the test with HIF1α (18 hr exposure to hypoxia) were “did not have much effect” and “reduced HIF1α expression”, respectively.

Values taken from US9101567B2, “Suppression of cancer growth and metastasis using nordihydroguaiaretic acid derivatives with 7-hydroxystaurosporine” (The Johns Hopkins University, priority 2010, dated 2015).
